Values of other authors as cited in patent US20180016637A1, “METHOD OF EVALUATING THE RESPONSE OF ATAXIA TELANGIECTASIA PATIENTS TO GLUCOCORTICOIDS TREATMENT” (EryDel S.p.A., priority 2015, published 2018).

Tested on: lymphoblastoid cell lines from lymphocytes of A-T patients

C[C@@H]1C[C@H]2[C@@H]3CCC4=CC(=O)C=C[C@]4(C)[C@@]3(F)[C@@H](O)C[C@]2(C)[C@@]1(O)C(=O)COP(=O)(O)O [Dexamethasone sodium phosphate]
transcript induced in vitro: a transcript of about 1582 bp denominated ATMdexa1
